US11358933B2, “Compounds and methods for inhibiting CYP26 enzymes” (Queen's University at Kingston, priority 2017, dated 2022)

Legend:
[1] = test system: MV4-11 cells; assay: Leukemia cell differentiation by FACS (CD11b+), MV4-11 cells with or without stroma; format: cell-based, human; details: RA plus compound, in the presence of stroma
Procedure: Many human non-APL AML cell lines are sensitive to RA-induced differentiation. However, co-culture of leukemic cells with bone marrow stromal cells can block this effect of RA. This assay tests the ability of CYP26 inhibitor compounds to overcome the protective effect that stromal cells have on leukemic cell differentiation. For these experiments, OP9 mouse bone marrow stromal cells are grown MEM-α containing 20% FBS, in 24 well plates until a cell monolayer is formed. OP9 cells are then irradiated (15Gy) using a GammaCell 20 cesium-137 source (located at Queen's University) in order to induce growth arrest. Leukemic cells are then added to the irradiated monolayers, or control wells without OP9 cells. AML cell lines (150,000 cells) are then plated onto OP9 monolayers in their appropriated growth medium; THP-1 RPMI-1640 medium containing 10% FBS; MDSL, RPMI-1640 medium containing 10% FBS and 10 ng/ml recombinant human IL-3; Kasumi-1, RPMI-1640 containing 20% FBS; MV4-11, IMDM containing 10% FBS. […] Stained cells are then sorted by FACS in a BD FACS Aria 3 flow cytometer (Queen's University) using FACS Diva software, to assess percentage of cells that are CD11b^+, the relative expression levels of CD11b (by median fluorescence intensity—MFI), or percentage of CD34^+CD38^− leukemic stem cells (LSCs). […]

[2] = test system: MV4-11 cells; assay: Leukemia cell apoptosis (FITC-Annexin V), MV4-11 cells; format: cell-based, human; details: 0.1 μM RA plus 1 μM compound, stromal cells present, 48 hours
Procedure: RA can also induce apoptosis is a variety of cell types, including AML cells. This experiment tests CYP26 inhibitor compounds for their ability to rescue RA-induced apoptosis in the presence of bone marrow stromal cells. For these experiments MV4-11 AML cells are plated as above, in the presence and absence of stromal monolayers. Cells are then treated for 48 hours with RA (0.1 μM). After the treatment period, cells are stained with a FITC-labeled annexin V antibody (available from Thermofisher Scientific), which binds to the surface of apoptotic cells. Cells are then sorted by FACS in a as above and data are expressed as percentage of annexin V^+ (apoptotic) cells.

[3] = test system: primary human bone marrow stromal cells; assay: RA metabolism by primary human bone marrow stromal cells; format: cell-based; details: pre-treated with DMSO or 1 μM RA 24 hours; 1 μM compound (FIG. 5)
Procedure: These experiments are to assess the ability of primary cells, or cell lines to metabolize RA, and to determine the effect of inhibition of CYP26A1 or CYP26B1 on this ability. For these experiments, cells are plated into 48-well plates and treated with a radiolabeled (^3H) RA. The extent of conversion of this labeled RA to water soluble metabolites is determined as above for in the cell-based inhibitor assay. Primary human bone marrow stromal cells (available from Lonza) were cultured in MyeloCult (available from Stem Cell Technologies, Vancouver, Canada). Mouse OP9 bone marrow stromal cells and MC3T3 pre-osteoblasts were cultured as above. Cells are plated in the appropriate culture medium and allowed to form a monolayer. Cells are then pre-treated with either DMSO (vehicle control) or RA (1 μM) for 24 hours to induce CYP26 expression. Vehicle, and RA induced cells are then exposed to ^3H-RA in the presence or absence of test CYP26 inhibitor to examine the effects on RA metabolism. Cells are incubated for 3 hours with labeled RA, and metabolites extracted and analyzed as above.

`CC(C)(C)c1cccc(-c2cc3cc(/C=C/C(=O)O)ccc3[nH]2)c1` [Compound 026] was tested, and the “RA-induced differentiation (CD11b+ cells)” value [1] was “rescued RA-induced differentiation in the presence of stroma”, the “RA-induced apoptosis (Annexin V positive cells)” value [2] was “rescued by the addition of compound 026” and the “RA metabolism, basal and RA-induced” value [3] was “efficiently blocked both basal and RA-induced RA metabolism”.
